As a reminder, the IC50 is the midpoint of a concentration-inhibition curve.

Data on two compounds can be found in US20100184134A1, “DUAL CHARGING SYSTEM FOR SELECTIVELY INTRODUCING NON-NATIVE AMINO ACIDS INTO PROTEINS USING AN IN VITRO SYNTHESIS METHOD” (priority 2009, published 2010).

Molecules are shown by their SMILES.

In assay [1] the target is GluRS (Escherichia coli, UniProt P04805). Particulars: read-out: IC50 for inhibition of the rate of cell-free synthesis of turboGFP; cell-free reaction at 30° C., fluorescence monitored for 5 h, maximal rate of fluorescence change. The source says:
(§1) Cell-free extracts or lysates were generated to maximize ribosome yield using rapid growth of high cell density fermentations of E. coli strain KGK10 (Knapp, Goerke et al. (2007) Biotechnol Bioeng, 97, 901-8), essentially as described by Liu et al.(Liu, Zawada et al. (2005) Biotechnol Prog, 21, 460-5) DL-dithiothreitol was not added to the cell lysate following homogenization. A modified “run-off procedure” was used to prepare the cell-free extract. Fermentation volume to generate sufficient cell-free extract was typically 2.5× the desired cell-free reaction volume. To inactivate the reducing activity of the cell extract, iodoacetamide (IAM) at various concentrations was added as previously described (Yang, Kanter et al. (2004) Biotechnol Prog, 20, 1689-96). Gene expression was under the control of the T7 promoter. In order to facilitate translation initiation, genes were synthesized (DNA 2.0, Menlo Park, Calif.) with synonymous codons at the 5′ end of the gene with ATG start codon (N-terminal methionine residue) optimized for mRNA instability as measured by mRNA ΔGfold in the −6 to +37 positions (Kudla, Murray et al. (2009) Science, 324, 255-258) and rare codons were replaced. […]

In assay [2] the target is T1, PheRS (Escherichia coli, UniProt P08312).
T1 construct: endogenous in cells; host or cells: cell-free extract (lysate) of E. coli strain KGK10
T1 sequence (P07395 whole entry): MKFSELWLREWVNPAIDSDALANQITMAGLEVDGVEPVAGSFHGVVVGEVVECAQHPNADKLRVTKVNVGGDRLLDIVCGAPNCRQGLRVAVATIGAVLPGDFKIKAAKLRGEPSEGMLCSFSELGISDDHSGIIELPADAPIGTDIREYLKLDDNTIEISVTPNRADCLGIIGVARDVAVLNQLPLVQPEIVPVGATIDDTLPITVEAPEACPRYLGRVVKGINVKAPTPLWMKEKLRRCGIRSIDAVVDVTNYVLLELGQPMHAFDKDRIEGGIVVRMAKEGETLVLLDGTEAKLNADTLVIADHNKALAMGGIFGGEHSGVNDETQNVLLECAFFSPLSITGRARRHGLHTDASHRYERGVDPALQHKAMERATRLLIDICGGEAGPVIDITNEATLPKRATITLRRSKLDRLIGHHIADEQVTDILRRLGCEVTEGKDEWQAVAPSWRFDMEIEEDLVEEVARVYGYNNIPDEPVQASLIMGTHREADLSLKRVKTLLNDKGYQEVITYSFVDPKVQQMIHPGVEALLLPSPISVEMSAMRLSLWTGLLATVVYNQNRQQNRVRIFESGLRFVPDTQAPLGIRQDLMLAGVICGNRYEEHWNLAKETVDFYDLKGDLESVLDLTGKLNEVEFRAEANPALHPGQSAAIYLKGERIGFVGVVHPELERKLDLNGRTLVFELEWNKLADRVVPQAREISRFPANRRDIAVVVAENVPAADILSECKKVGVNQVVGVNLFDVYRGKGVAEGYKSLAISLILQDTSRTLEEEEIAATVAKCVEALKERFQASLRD
T1 sequence (P08312 whole entry): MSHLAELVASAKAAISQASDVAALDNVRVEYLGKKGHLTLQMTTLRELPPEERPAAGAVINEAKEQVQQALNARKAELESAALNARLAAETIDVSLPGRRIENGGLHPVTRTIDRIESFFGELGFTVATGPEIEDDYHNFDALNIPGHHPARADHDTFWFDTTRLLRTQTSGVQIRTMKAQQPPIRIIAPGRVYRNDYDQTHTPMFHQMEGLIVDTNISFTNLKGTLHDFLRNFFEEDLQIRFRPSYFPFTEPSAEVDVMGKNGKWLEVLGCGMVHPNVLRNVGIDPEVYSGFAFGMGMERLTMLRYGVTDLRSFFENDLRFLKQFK
Description: Inhibition of the rate of cell-free synthesis of turboGFP by Phe-SA. In kind it is biochemical, E. coli.
From the text: as §1

The target in assay [3] is T2, endogenous activity of PheRS (Escherichia coli, UniProt P08312).
T2 construct: endogenous in cells; host or cells: cell-free extract (lysate) of E. coli strain KGK10
T2 sequence (P08312 whole entry): as above
T2 sequence (P07395 whole entry, further chain): as the sequence (P07395 whole entry) above
The experiment in a line: Cell-free synthesis of turboGFP Y50TAG with added uncharged tRNAs in the presence of Phe-SA. In kind it is biochemical, E. coli. Particulars: 12 nM Phe-SA; uncharged tRNACUA^Phe and tRNAGAA^Phe added. Here is the method: A control reaction containing turboGFP Y50TAG plasmid only yields no fluorescence, consistent with the ca. 6 kD truncated product (cf FIG. 22). The incorporation of para-acetyl phenylalanine at position 50 using the UAG-specific E. coli phenylalanine tRNACUA^Phe and tRNAGAA^Phe was measured in the presence 12 nM Phe-SA inhibitor, to inhibit the endogenous activity of PheRS (cf. FIG. 19c). […] In contrast, addition of various concentrations of both charged pAF-tRNACUA^Phe and Phe-tRNAGAA^Phe results in 13-20% of the wild-type fluorescence after 5 h, consistent with significant protein synthesis with incorporation of pAF at position 50.

Chain of GluRS (P04805 whole entry): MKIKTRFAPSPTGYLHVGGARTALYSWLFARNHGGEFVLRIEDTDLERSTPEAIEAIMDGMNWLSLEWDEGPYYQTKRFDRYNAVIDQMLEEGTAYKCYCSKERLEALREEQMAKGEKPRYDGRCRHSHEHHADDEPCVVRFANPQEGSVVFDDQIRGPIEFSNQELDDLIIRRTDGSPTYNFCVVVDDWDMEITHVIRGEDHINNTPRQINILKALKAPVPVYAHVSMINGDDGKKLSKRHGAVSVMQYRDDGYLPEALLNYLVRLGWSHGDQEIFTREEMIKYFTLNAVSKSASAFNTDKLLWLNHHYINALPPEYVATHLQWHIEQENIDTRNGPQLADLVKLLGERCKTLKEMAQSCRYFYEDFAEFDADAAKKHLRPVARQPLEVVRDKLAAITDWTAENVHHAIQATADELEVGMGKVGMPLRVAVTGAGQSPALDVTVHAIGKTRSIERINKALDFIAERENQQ

As for `Nc1ncnc2c1ncn2[C@@H]1O[C@H](COS(=O)(=O)NC(=O)[C@@H](N)CCC(=O)O)[C@@H](O)[C@H]1O` [Glu-SA], in assay [1], the IC50 was 54 nM.
For `Nc1ncnc2c1ncn2[C@@H]1O[C@H](COS(=O)(=O)NC(=O)[C@@H](N)Cc2ccccc2)[C@@H](O)[C@H]1O` [Phe-SA, 5′-O-[N-(Phenylalanyl)sulfamoyl] adenosine], in assay [2], the IC50 was 0.8 nM. Besides, in assay [2] (1 nM Phe-SA inhibitor), the “turboGFP fluorescence activity (percent relative activity)” value is given as ~50%. The “inhibition of PheRS (no protein synthesized with uncharged tRNAs)” value in assay [3] is reported as “completely inhibited”.
